From ChEMBL document CHEMBL1133604, “1-imidazolyl(alkyl)-substituted di- and tetrahydroquinolines and analogues: syntheses and evaluation of dual inhibitors of thromboxane A(2) synthase and aromatase” (J Med Chem, 2000)
Calls of active or inactive are those of the source. No cut-off for these calls is given here.

Species on record: Bos taurus
Assay: not given
Conditions: not given

Structure (SMILES)	NI
C1=C(CCn2ccnc2)c2cccnc2CC1	inactive

Target: T1, Thromboxane-A synthase (Homo sapiens, UniProt P24557)
T1 sequence (P24557 whole entry): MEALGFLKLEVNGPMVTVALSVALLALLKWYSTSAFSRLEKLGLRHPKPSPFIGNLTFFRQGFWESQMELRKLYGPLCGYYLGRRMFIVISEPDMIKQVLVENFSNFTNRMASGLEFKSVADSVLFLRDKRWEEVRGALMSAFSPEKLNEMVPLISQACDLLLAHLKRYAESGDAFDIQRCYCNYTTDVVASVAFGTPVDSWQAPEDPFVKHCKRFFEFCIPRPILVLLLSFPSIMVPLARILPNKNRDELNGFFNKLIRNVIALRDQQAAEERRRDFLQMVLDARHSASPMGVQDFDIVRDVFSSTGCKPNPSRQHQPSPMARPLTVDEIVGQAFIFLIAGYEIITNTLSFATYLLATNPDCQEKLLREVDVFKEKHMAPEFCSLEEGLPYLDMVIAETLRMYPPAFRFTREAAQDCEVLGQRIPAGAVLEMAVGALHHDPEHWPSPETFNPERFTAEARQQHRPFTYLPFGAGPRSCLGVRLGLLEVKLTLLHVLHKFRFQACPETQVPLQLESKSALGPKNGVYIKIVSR
Assay: not given
Format: tissue-based, Blood
Conditions: not given

IC50 [nM]	Structure (SMILES)
2000	c1cnc2c(c1)C(Cn1ccnc1)CCC2 (stereo unspecified)
1010	c1cn(CCC2CCCc3occc32)cn1 (stereo unspecified)
1700	C(/Cn1ccnc1)=C1/CCCc2sccc21
3400	c1ccc2c(c1)CCCC2CCn1ccnc1 (stereo unspecified)
5300	c1cc(CCn2ccnc2)c2ccsc2c1
1260	C(/Cn1ccnc1)=C1\CCCc2sccc21
1230	c1cn(CCC2CCCc3sccc32)cn1 (stereo unspecified)
1500	C1=C(Cn2ccnc2)c2cccnc2CC1
4100	C(/Cn1ccnc1)=C1\CCCc2occc21
3550	C(/Cn1ccnc1)=C1/CCCc2occc21

More lines, now with the values behind:

Structure (SMILES)	IC50 [nM]
C1=C(CCCn2ccnc2)c2cccnc2CC1	680
c1cnc2c(c1)C(CCCn1ccnc1)CCC2 (stereo unspecified)	2300
c1cc(CCn2ccnc2)c2cccnc2c1	1200
C1=C(CCn2ccnc2)c2cccnc2CC1	290
c1cc2ccc(Cn3ccnc3)cc2cn1	5400
c1cnc2c(c1)C(CCn1ccnc1)CCC2 (stereo unspecified)	630

Target: T1, Thromboxane-A synthase
Assay: not given
Conditions: not given
Remark: another data set of the same source

IC50 [nM]	Structure (SMILES)
1600	O=C(OC1CCCc2ncccc21)n1ccnc1 (stereo unspecified)

Target: T2, Steroid 17-alpha-hydroxylase/17,20 lyase (Rattus norvegicus, UniProt P11715)
T2 sequence (P11715 whole entry): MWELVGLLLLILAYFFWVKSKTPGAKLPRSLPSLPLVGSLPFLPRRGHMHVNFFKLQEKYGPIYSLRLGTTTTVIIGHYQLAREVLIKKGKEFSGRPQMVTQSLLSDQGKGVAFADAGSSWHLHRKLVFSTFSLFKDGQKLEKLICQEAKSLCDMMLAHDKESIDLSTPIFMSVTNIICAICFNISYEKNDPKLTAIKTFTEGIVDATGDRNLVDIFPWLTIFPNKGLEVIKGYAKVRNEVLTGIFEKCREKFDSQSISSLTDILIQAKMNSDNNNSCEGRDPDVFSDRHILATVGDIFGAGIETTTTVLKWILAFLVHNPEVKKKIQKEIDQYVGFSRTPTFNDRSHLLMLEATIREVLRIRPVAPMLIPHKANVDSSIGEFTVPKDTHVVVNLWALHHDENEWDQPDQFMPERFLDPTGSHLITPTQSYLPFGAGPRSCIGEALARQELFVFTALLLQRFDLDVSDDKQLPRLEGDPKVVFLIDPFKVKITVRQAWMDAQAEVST
Assay: not given
Conditions: not given

IC50 [µM]	Structure (SMILES)
20	c1ccc2c(c1)CCCC2CCn1ccnc1 (stereo unspecified)
125	c1cnc2c(c1)C(CCn1ccnc1)CCC2 (stereo unspecified)

Species on record: Bos taurus
Assay: not given
Conditions: not given
Remark: another data set of the same source

Structure (SMILES)	NI
C1=C(CCn2ccnc2)c2cccnc2CC1	inactive

Target: T2, Steroid 17-alpha-hydroxylase/17,20 lyase
Assay: not given
Conditions: not given
Remark: another data set of the same source

inhibition at 125 µM [%]	Structure (SMILES)
11	c1cnc2c(c1)C(Cn1ccnc1)CCC2 (stereo unspecified)
> 80	c1ccc2c(c1)CCCC2CCn1ccnc1 (stereo unspecified)
69	C1=C(Cn2ccnc2)c2cccnc2CC1

The remaining lines, values behind:

Structure (SMILES)	inhibition at 125 µM [%]
C1=C(CCCn2ccnc2)c2cccnc2CC1	79
c1cnc2c(c1)C(CCCn1ccnc1)CCC2 (stereo unspecified)	59
c1cnc2c(c1)C(n1ccnc1)CCC2 (stereo unspecified)	14
c1cc(CCn2ccnc2)c2cccnc2c1	22
C1=C(CCn2ccnc2)c2cccnc2CC1	21
c1cnc2c(c1)C(CCn1ccnc1)CCC2 (stereo unspecified)	49

Tested on: not listed separately
Assay: cells
Format: functional
Conditions: Bos taurus

IC50 [nM]	Structure (SMILES)
173	C1=C(CCn2ccnc2)c2cccnc2CC1
